The values that follow come from the supplement of paper PMC12463676, “Small-molecule dissolution of stress granules by redox modulation benefits ALS models” (Nature Chemical Biology, 2025).

Compound in one assay: O=[As]([O-])(O)O.[K+] [potassium arsenate]
Nature of the assay: thermal stability z-score vs DMSO; higher = more thermally stabilized by treatment. As to conditions: HeLa; arsenate concentration 1 mM. On the procedure: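 Cellular thermal proteome profiling in HeLa cells treated with 1 mM arsenate for 1 h (DMSO pretreatment), heated to ten temperatures (37-66.3 °C). Soluble protein was quantified by TMT mass spectrometry relative to DMSO controls; the thermal stability score was transformed to a z-score; mean of n = 3 experiments.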

Compound in another assay: NC(=O)CCCCC1CCSS1 [lipoamide]
The assay is described as above. As to conditions: HeLa, lipoamide concentration 100 µM. On the procedure:
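Cellular thermal proteome profiling in HeLa cells. Cells were treated with 100 µM lipoamide for 1 h, with or without 1 mM arsenate for a further 1 h, then heated to ten temperatures (37-66.3 °C), and soluble protein was quantified by TMT mass spectrometry relative to 0.1% DMSO controls. The thermal stability score (sum of log2 fold changes minus the abundance score) was transformed to a z-score; mean of n = 3 experiments.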

Setting [1] is: arsenate co-treatment: 1 mM arsenate 1 h.
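Also: each temperature applied for 3 min, abundance score taken as mean log2 fold change at the two lowest temperatures, z-score obtained by mean subtraction and division by SD.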

Chain of UniProt Q9UNF1 (Q9UNF1 whole entry): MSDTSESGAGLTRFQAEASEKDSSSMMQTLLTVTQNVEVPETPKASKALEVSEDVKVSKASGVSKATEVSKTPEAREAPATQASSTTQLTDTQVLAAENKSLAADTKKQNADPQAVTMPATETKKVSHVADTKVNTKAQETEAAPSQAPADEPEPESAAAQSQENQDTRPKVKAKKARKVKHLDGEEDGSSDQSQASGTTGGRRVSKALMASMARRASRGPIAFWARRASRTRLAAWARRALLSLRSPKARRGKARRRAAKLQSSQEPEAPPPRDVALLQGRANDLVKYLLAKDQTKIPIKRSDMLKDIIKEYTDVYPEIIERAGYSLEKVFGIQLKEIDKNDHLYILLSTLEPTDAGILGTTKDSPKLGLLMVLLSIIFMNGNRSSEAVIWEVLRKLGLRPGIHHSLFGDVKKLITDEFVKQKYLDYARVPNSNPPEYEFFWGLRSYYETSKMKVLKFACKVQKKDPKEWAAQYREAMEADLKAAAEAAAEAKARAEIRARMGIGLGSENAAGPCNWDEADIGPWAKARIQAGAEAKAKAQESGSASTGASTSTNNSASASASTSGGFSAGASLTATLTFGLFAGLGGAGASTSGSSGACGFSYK
Chain of UniProt P25490 (P25490 whole entry): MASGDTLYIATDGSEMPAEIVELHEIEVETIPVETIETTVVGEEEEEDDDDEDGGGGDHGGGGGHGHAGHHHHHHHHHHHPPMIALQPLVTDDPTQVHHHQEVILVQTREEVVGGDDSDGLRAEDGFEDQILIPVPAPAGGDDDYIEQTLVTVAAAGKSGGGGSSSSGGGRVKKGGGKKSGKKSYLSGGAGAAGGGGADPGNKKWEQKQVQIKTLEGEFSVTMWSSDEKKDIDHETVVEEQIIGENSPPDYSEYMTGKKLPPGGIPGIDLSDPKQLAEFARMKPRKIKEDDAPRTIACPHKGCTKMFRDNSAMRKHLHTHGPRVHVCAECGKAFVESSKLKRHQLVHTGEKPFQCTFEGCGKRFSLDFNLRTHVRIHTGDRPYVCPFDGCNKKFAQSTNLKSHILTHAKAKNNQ
Chain of UniProt Q9HB90 (Q9HB90 whole entry): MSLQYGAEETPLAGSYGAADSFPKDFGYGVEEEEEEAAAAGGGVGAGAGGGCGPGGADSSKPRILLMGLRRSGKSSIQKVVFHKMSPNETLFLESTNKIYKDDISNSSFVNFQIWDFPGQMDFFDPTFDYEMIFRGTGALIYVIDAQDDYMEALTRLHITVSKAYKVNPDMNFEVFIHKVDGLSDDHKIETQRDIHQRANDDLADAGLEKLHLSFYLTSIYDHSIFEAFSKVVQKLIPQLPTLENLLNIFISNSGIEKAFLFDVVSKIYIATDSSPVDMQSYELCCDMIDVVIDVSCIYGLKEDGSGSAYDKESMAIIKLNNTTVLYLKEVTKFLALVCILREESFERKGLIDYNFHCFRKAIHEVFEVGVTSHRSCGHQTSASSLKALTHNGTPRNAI
Chain of UniProt Q9UPU5 (Q9UPU5 whole entry): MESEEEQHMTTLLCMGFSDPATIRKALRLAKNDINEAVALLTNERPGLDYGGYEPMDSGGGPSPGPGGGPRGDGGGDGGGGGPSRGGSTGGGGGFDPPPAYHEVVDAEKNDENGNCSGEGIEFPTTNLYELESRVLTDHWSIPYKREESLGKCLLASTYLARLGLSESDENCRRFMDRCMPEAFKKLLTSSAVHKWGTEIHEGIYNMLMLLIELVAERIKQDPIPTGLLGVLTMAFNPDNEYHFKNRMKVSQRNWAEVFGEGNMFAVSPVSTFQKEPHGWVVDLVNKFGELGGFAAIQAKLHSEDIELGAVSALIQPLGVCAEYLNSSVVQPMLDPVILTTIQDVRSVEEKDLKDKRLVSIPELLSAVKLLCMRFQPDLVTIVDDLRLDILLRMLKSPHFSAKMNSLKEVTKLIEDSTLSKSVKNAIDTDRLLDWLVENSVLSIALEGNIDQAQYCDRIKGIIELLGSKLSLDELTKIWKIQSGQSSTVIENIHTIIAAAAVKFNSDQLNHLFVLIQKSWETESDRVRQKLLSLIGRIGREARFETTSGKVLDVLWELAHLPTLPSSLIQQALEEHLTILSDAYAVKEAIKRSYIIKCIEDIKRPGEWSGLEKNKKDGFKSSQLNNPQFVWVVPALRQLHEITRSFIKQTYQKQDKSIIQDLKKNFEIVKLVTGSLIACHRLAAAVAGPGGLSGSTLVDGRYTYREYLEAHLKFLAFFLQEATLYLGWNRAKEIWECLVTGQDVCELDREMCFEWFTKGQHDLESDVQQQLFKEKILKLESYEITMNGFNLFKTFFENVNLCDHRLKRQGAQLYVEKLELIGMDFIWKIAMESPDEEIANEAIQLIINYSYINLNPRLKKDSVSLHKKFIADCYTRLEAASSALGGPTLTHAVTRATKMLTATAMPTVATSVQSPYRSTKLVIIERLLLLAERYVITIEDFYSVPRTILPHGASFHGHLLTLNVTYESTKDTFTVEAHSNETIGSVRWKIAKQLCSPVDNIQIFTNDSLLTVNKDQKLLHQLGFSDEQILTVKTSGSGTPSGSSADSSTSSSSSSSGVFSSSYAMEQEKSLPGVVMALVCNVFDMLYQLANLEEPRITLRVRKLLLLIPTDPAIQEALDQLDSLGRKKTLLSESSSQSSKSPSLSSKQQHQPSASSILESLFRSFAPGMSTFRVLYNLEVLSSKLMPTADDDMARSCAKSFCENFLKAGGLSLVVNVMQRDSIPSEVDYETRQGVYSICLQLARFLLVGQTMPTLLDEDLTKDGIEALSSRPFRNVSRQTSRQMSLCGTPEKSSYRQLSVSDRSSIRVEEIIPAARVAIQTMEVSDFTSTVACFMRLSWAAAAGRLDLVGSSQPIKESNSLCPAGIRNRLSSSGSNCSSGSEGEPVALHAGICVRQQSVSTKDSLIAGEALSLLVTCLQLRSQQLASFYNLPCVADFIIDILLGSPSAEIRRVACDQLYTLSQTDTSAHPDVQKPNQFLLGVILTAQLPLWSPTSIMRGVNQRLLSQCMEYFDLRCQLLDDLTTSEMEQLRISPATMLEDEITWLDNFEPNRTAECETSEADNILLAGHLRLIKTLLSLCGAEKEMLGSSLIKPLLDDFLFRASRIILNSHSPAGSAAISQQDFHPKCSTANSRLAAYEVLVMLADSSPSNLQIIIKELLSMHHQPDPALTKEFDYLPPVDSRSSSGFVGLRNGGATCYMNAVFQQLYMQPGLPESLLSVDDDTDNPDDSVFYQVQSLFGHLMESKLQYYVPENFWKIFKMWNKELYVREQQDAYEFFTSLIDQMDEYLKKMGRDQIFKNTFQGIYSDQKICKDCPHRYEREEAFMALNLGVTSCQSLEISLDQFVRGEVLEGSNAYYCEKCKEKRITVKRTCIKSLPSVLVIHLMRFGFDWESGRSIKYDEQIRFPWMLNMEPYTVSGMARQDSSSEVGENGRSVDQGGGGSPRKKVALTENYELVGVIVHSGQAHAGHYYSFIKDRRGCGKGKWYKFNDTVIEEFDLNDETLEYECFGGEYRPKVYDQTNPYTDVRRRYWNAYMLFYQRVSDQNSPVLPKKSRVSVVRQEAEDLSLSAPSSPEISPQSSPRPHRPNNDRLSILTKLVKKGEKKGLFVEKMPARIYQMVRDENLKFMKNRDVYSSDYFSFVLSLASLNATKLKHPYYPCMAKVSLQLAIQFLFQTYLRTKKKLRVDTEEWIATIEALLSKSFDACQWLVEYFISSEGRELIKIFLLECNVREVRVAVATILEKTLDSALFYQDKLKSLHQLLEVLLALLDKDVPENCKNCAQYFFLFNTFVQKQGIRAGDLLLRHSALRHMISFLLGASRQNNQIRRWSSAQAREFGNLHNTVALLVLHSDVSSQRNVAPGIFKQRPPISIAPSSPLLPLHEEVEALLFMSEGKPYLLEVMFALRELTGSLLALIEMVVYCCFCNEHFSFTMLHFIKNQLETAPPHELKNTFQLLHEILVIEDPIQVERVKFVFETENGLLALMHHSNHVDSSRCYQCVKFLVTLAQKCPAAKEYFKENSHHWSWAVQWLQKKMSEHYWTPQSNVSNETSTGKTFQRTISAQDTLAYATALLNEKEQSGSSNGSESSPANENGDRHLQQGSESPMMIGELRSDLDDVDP
Chain of UniProt Q8IUH4 (Q8IUH4 whole entry): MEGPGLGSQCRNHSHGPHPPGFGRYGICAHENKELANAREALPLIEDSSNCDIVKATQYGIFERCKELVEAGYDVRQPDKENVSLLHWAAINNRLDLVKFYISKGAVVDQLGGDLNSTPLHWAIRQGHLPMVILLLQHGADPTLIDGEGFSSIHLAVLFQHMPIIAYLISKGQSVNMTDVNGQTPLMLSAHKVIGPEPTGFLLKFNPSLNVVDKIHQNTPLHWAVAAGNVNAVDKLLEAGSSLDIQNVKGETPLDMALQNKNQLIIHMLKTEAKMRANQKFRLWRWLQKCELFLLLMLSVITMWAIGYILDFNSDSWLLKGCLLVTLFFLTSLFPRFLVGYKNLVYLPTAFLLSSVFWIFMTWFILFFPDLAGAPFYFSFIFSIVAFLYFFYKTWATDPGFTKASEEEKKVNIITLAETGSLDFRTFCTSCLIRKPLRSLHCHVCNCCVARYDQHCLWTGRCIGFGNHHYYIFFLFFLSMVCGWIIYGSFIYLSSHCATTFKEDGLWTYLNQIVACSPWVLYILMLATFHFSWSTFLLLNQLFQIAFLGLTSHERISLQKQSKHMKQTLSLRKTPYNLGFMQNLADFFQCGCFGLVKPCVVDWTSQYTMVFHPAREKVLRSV
Chain of UniProt Q96EK6 (Q96EK6 whole entry): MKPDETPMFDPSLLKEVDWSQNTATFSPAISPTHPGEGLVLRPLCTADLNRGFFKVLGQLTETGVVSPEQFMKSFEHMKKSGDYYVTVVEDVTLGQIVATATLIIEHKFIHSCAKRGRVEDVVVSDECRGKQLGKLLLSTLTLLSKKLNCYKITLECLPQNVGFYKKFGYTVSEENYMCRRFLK
Chain of UniProt Q9BRP8 (Q9BRP8 whole entry): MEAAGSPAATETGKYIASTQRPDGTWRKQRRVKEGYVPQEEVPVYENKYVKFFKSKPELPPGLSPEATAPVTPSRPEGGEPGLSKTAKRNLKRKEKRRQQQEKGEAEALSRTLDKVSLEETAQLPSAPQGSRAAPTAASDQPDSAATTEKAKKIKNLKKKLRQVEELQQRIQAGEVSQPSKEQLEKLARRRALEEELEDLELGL

Consider TEX2 (UniProt Q8IWB9), for which the thermal stability z-score in the assay with potassium arsenate is 0.0716; in the assay with lipoamide (setting [1]), 0.11; with lipoamide (arsenate co-treatment: none), -0.0212.

On to UBE2M (UniProt P61081), for which the thermal stability z-score is -0.416 with potassium arsenate, 0.533 in the assay with lipoamide (setting [1]) and 0.463 in the assay with lipoamide (arsenate co-treatment: none).

As for P3H2 (UniProt Q8IVL5), the thermal stability z-score is 1.11 in the assay with potassium arsenate, -4.71 with lipoamide (setting [1]) and -4.05 with lipoamide (arsenate co-treatment: none).

Take ADI1 (UniProt Q9BV57): the thermal stability z-score with potassium arsenate was -0.317; in the assay with lipoamide (setting [1]), 0.768; with lipoamide (arsenate co-treatment: none), 0.913.

On to ARPP19 (UniProt P56211), for which the thermal stability z-score with potassium arsenate was -0.359; with lipoamide (setting [1]) it was 0.84; with lipoamide (arsenate co-treatment: none) it was 0.316.

As to PKN1 (UniProt Q16512), the thermal stability z-score was -0.513 with potassium arsenate, -0.436 with lipoamide (setting [1]) and -0.52 with lipoamide (arsenate co-treatment: none).

For the target TPP1 (UniProt O14773), the thermal stability z-score is -0.0975 with potassium arsenate, -0.299 with lipoamide (setting [1]) and -0.137 in the assay with lipoamide (arsenate co-treatment: none).

Turning to GMPPB (UniProt Q9Y5P6), the thermal stability z-score was -0.104 in the assay with potassium arsenate, -0.503 in the assay with lipoamide (setting [1]) and -0.625 with lipoamide (arsenate co-treatment: none).

For SCPEP1 (UniProt Q9HB40), the thermal stability z-score was -0.196 with potassium arsenate, -0.372 with lipoamide (setting [1]) and 0.187 with lipoamide (arsenate co-treatment: none).

For NAA15 (UniProt Q9BXJ9), the values for the thermal stability z-score with potassium arsenate, in the assay with lipoamide (setting [1]) and with lipoamide (arsenate co-treatment: none) were 0.812, 0.838 and 0.593, respectively.

As to MDH1 (UniProt P40925), the thermal stability z-score with potassium arsenate is -1.45; with lipoamide (setting [1]), 0.208; in the assay with lipoamide (arsenate co-treatment: none), 0.368.

EEF1B2 (UniProt P24534): the values for the thermal stability z-score with potassium arsenate, with lipoamide (setting [1]) and in the assay with lipoamide (arsenate co-treatment: none) were 0.849, 0.748 and 0.472, respectively.

For TSNAX (UniProt Q99598), the thermal stability z-score with potassium arsenate was -0.215; in the assay with lipoamide (setting [1]), -0.075; in the assay with lipoamide (arsenate co-treatment: none), -0.0638.

Consider ESYT1 (UniProt Q9BSJ8), for which the thermal stability z-score with potassium arsenate is 0.595; with lipoamide (setting [1]), -0.86; in the assay with lipoamide (arsenate co-treatment: none) it was -0.642.

As for APTX (UniProt Q7Z2E3), the thermal stability z-score in the assay with potassium arsenate is -0.253; in the assay with lipoamide (setting [1]), 0.0235; in the assay with lipoamide (arsenate co-treatment: none), 0.0974.

Turning to CAP1 (UniProt Q01518), the thermal stability z-score in the assay with potassium arsenate was -0.0608; with lipoamide (setting [1]) it was 0.524; with lipoamide (arsenate co-treatment: none), 0.502.

For the target OSBPL2 (UniProt Q9H1P3), the thermal stability z-score is -0.0657 with potassium arsenate, -0.0428 with lipoamide (setting [1]) and 0.0817 with lipoamide (arsenate co-treatment: none).

As for LTBR (UniProt P36941), the thermal stability z-score is 0.85 with potassium arsenate, -2.06 in the assay with lipoamide (setting [1]) and -1.66 with lipoamide (arsenate co-treatment: none).

As for ABCB10 (UniProt Q9NRK6), the thermal stability z-score with potassium arsenate is -0.034; with lipoamide (setting [1]), 0.329; with lipoamide (arsenate co-treatment: none), 0.173.

On to EML3 (UniProt Q32P44), for which the thermal stability z-score was -0.524 in the assay with potassium arsenate, 0.0786 with lipoamide (setting [1]) and -0.13 with lipoamide (arsenate co-treatment: none).

Regarding TOLLIP (UniProt Q9H0E2), the thermal stability z-score is -0.313 in the assay with potassium arsenate, 0.239 with lipoamide (setting [1]) and 0.158 in the assay with lipoamide (arsenate co-treatment: none).

On to PPME1 (UniProt Q9Y570), for which the thermal stability z-score was -1.09 with potassium arsenate, 0.126 with lipoamide (setting [1]) and 0.00998 with lipoamide (arsenate co-treatment: none).

Consider ZDHHC13 (UniProt Q8IUH4), for which the thermal stability z-score was 0.144 with potassium arsenate, 0.0485 with lipoamide (setting [1]) and -0.0918 with lipoamide (arsenate co-treatment: none).

STX10 (UniProt O60499): the thermal stability z-score with potassium arsenate is 0.516; in the assay with lipoamide (setting [1]), -0.387; with lipoamide (arsenate co-treatment: none), -0.00805.

For DHTKD1 (UniProt Q96HY7), the thermal stability z-score with potassium arsenate is -0.558; with lipoamide (setting [1]), -0.237; with lipoamide (arsenate co-treatment: none) it was 0.0606.

Turning to GGCX (UniProt P38435), the values for the thermal stability z-score with potassium arsenate, with lipoamide (setting [1]) and in the assay with lipoamide (arsenate co-treatment: none) were -0.0562, -0.482 and -0.632, respectively.

For the target YY1 (UniProt P25490), the thermal stability z-score is 0.338 with potassium arsenate, 0.0187 with lipoamide (setting [1]) and -0.101 with lipoamide (arsenate co-treatment: none).

For the target SMIM12 (UniProt Q96EX1), the thermal stability z-score is 0.0454 with potassium arsenate, -0.371 in the assay with lipoamide (setting [1]) and 0.35 with lipoamide (arsenate co-treatment: none).

Consider INPPL1 (UniProt O15357), for which the thermal stability z-score in the assay with potassium arsenate is 0.0386; in the assay with lipoamide (setting [1]) it was -0.527; in the assay with lipoamide (arsenate co-treatment: none) it was -0.154.

As for GNPNAT1 (UniProt Q96EK6), the thermal stability z-score in the assay with potassium arsenate was -1.03; with lipoamide (setting [1]), 0.365; with lipoamide (arsenate co-treatment: none), -0.348.

For the target XRN1 (UniProt Q8IZH2), the thermal stability z-score was -0.357 in the assay with potassium arsenate, -0.0709 with lipoamide (setting [1]) and -0.0695 with lipoamide (arsenate co-treatment: none).

Consider MAGED2 (UniProt Q9UNF1), for which the thermal stability z-score in the assay with potassium arsenate was 0.741; with lipoamide (setting [1]), -0.0801; in the assay with lipoamide (arsenate co-treatment: none), 0.24.

Consider NDUFA10 (UniProt O95299), for which the thermal stability z-score in the assay with potassium arsenate is -0.167; in the assay with lipoamide (setting [1]) it was -0.327; with lipoamide (arsenate co-treatment: none), -0.199.

Turning to NUFIP2 (UniProt Q7Z417), the thermal stability z-score in the assay with potassium arsenate was 1.08; in the assay with lipoamide (setting [1]), 0.354; in the assay with lipoamide (arsenate co-treatment: none) it was 0.487.

Take USP24 (UniProt Q9UPU5): the figures for the thermal stability z-score with potassium arsenate, with lipoamide (setting [1]) and with lipoamide (arsenate co-treatment: none) were -0.117, -0.197 and -0.413, respectively.

Take PYM1 (UniProt Q9BRP8): the thermal stability z-score is -0.578 with potassium arsenate, 0.618 with lipoamide (setting [1]) and -0.287 with lipoamide (arsenate co-treatment: none).

With RRAGC (UniProt Q9HB90), the thermal stability z-score is -0.786 with potassium arsenate, 0.182 with lipoamide (setting [1]) and -0.182 with lipoamide (arsenate co-treatment: none).

On to ADPGK (UniProt Q9BRR6), for which the thermal stability z-score in the assay with potassium arsenate is -0.315; with lipoamide (setting [1]), -1.02; with lipoamide (arsenate co-treatment: none) it was -0.44.

As to PRPF8 (UniProt Q6P2Q9), the thermal stability z-score with potassium arsenate was -0.418; with lipoamide (setting [1]), -0.186; with lipoamide (arsenate co-treatment: none), -0.395.

Take ATP9A (UniProt O75110): the thermal stability z-score in the assay with potassium arsenate is -0.569; in the assay with lipoamide (setting [1]), 0.482; with lipoamide (arsenate co-treatment: none), 0.278.

For ALG1 (UniProt Q9BT22), the figures for the thermal stability z-score with potassium arsenate, in the assay with lipoamide (setting [1]) and with lipoamide (arsenate co-treatment: none) were 0.115, -0.337 and 0.0286, respectively.

For the target LZTR1 (UniProt Q8N653), the thermal stability z-score in the assay with potassium arsenate was -0.137; with lipoamide (setting [1]) it was -0.12; with lipoamide (arsenate co-treatment: none), 0.0373.
